This assay has as its target human cathepsin K (UniProt P43236, Y175D/V274L, species not given). The experiment in a line: Cathepsin K Assay. The class given is biochemical. As to conditions: IP from dose response curve; Z-Leu-Arg-AMC substrate, pH 5.5; read-out: hrbCat K (IP (nM)).

Each structure is given as a SMILES string.

For `CC(C#N)NC(=O)[C@@H]1CCC(F)(F)C[C@H]1c1nn(-c2ccc(F)cn2)cc1-c1ccc(N2CCS(=N)(=O)CC2)cc1` (single isomer, unassigned) [Example 22, (1R,2R)-N-((R or S)-1-cyanoethyl)-4,4-difluoro-2-(1-(5-fluoropyridin-2-yl)-4-(4-(1-imino-1-oxidothiomorpholino)phenyl)-1H-pyrazol-3-yl)cyclohexanecarboxamide], the IC50 is 264 nM.

For `CN=S1(=O)CCN(c2ccc(-c3cn(-c4ccc(F)cn4)nc3[C@@H]3CC(F)(F)CC[C@H]3C(=O)NC(C)C#N)cc2)CC1` (single isomer, unassigned) [Example 24, (1R,2R)-N-((R or S)-1-cyanoethyl)-4,4-difIuoro-2-(1-(5-fluoropyridin-2-yl)-4-(4-(1-(methylimino)-1-oxidothiomorpholino)phenyl)-1H-pyrazol-3-yl)cyclohexanecarboxamide], the IC50 amounted to 169 nM.

Turning to `CC1(C)CC[C@@H](c2nn(-c3ccc(F)cc3)cc2-c2ccc(N3CCS(=O)(=O)CC3)cc2)[C@H](C(=O)NC2(C#N)CC2)C1` (single isomer, unassigned) [Example 126, (1R,2R) or (1S,2S)-N-(1-cyanocyclopropyl)-2-(4-(4-(1,1-dioxidothiomorpholino)phen-yl)-1-(4-fluorophenyl)-1H-pyrazol-3-yl)-5,5-dimethylcyclohexanecarbox-amide], the IC50 was determined as 116 nM.

For the compound `C[C@@H](C#N)NC(=O)[C@@H]1C[C@@H](F)CC[C@H]1c1nn(-c2ncccc2F)cc1-c1ccc(N2CCS(=O)(=O)CC2)cc1` [Example 12, (1R,2R,5S)—N—((S)-1-Cyanoethyl)-2-(4-(4-(1,1-dioxidothiomorpholino)phenyl)-1-(3-fluoropyridin-2-yl)-1H-pyrazol-3-yl)-5-fluorocyclohexanecarboxamide], the IC50 was determined as 6.89 nM.

Consider `N#CC1(NC(=O)[C@@H]2CCC(F)(F)C[C@H]2c2nn(-c3ncccc3F)cc2-c2ccc(N3CCS(=N)(=O)CC3)cc2)CC1` [Example 39, (1R,2R)-N-(1-cyanocyclopropyl)-4,4-difluoro-2-(1-(3-fluoropyridin-2-yl)-4-(4-(1-imino-1-oxidothiomorpholino)phenyl)-1H-pyrazol-3-yl)cyclohexanecarboxamide], for which the IC50 amounted to 48.7 nM.

For `CN=S1(=O)CCN(c2ccc(-c3cn(-c4ncccc4F)nc3[C@@H]3CC(F)(F)CC[C@H]3C(=O)NC3(C#N)CC3)cc2)CC1` [Example 40, (1R,2R)-N-(1-cyanocyclopropyl)-4,4-difluoro-2-(1-(3-fluoropyridin-2-yl)-4-(4-(1-(methylimino)-1-oxidothiomorpholino)phenyl)-1H-pyrazol-3-yl)cyclohexanecarboxamide], the IC50 amounted to 22 nM.

As for `CC(C)[C@@H](C#N)NC(=O)[C@@H]1C[C@@H](F)CC[C@H]1c1nn(-c2ncccc2F)cc1-c1ccc(N2CCS(=O)(=O)CC2)cc1` [Example 49, (1R,2R,5S)-N-((S)-1-cyano-2-methylpropyl)-2-(4-(4-(1,1-dioxidothiomorpholino)phen-yl)-1-(3-fluoropyridin-2-yl)-1H-pyrazol-3-yl)-5-fluorocyclohexanecarboxamide], the IC50 came to 8.35 nM.

Consider `CN=S1(=O)CCN(c2ccc(-c3cn(-c4ncccc4F)nc3[C@@H]3CC[C@H](F)C[C@H]3C(=O)NC3(C#N)CC3)cc2)CC1` [Example 53, (1R,2R,5S)-N-(1-cyanocyclopropyl)-5-fluoro-2-(1-(3-fluoropyridin-2-yl)-4-(4-(1-(methylimino)-1-oxidothiomorpholino)phenyl)-1H-pyrazol-3-yl)cyclohexanecarboxamide], for which the IC50 was 6.54 nM.

Consider `CN=S1(=O)CCN(c2ccc(-c3cn(-c4ncccc4F)nc3[C@@H]3CC[C@H](F)C[C@H]3C(=O)N[C@@H](C)C#N)cc2)CC1` [Example 54, (1R,2R,5S)-N-((S)-1-cyanoethyl)-5-fluoro-2-(1-(3-fluoropyridin-2-yl)-4-(4-(1-(methylimino)-1-oxidothiomorpholino)phenyl)-1H-pyrazol-3-yl)cyclohexanecarboxamide], for which the IC50 is 7.89 nM.

With `CN=S1(=O)CCN(c2ccc(-c3cn(-c4ncccc4F)nc3[C@@H]3CC[C@H](F)C[C@H]3C(=O)N[C@H](C#N)C(C)C)cc2)CC1` [Example 55, (1R,2R,5S)-N-((S)-1-cyano-2-methylpropyl)-5-fluoro-2-(1-(3-fluoropyridin-2-yl)-4-(4-(1-(methylimino)-1-oxidothiomorpholino)phenyl)-1H-pyrazol-3-yl)cyclohexanecarboxamide], the IC50 turned out to be 14.3 nM.

In the case of `N#CC1(NC(=O)[C@@H]2C[C@@H](F)CC[C@H]2c2nn(-c3ncccc3F)cc2-c2ccc(N3CCS(=N)(=O)CC3)cc2)CC1` [Example 56, (1R,2R,5S)-N-(1-cyanocyclopropyl)-5-fluoro-2-(1-(3-fluoropyridin-2-yl)-4-(4-(1-imino-1-oxidothiomorpholino)phenyl)-1H-pyrazol-3-yl)cyclohexanecarboxamide], the IC50 was 5.69 nM.

In the case of `CC(C)[C@@H](C#N)NC(=O)[C@@H]1C[C@@H](F)CC[C@H]1c1nn(-c2ncccc2F)cc1-c1ccc(N2CCS(=N)(=O)CC2)cc1` [Example 58, (1R,2R,5S)-N-((S)-1-cyano-2-methylpropyl)-5-fluoro-2-(1-(3-fluoropyridin-2-yl)-4-(4-(1-imino-1-oxidothiomorpholino)phenyl)-1H-pyrazol-3-yl)cyclohexanecarboxamide], the IC50 was 16 nM.

As to `N#CC1(NC(=O)[C@@H]2CCC(F)(F)C[C@H]2c2nn(-c3ccc(C(F)(F)F)cn3)cc2-c2ccc(N3CCS(=O)(=O)CC3)cc2)CC1` [Example 149, (1R,2R)-N-(1-cyanocyclopropyl)-2-(4-(4-(1,1-dioxidothiomorpholino)phen-yl)-1-(5-(trifluoromethyl)pyridin-2-yl)-1H-pyrazol-3-yl)-4,4-difluorocyclohexanecarbox-amide], the IC50 stood at 2.58 nM.

Turning to `N#CC1(NC(=O)[C@@H]2CCC(F)(F)C[C@H]2c2nn(-c3ccc(Cl)cn3)cc2-c2ccc(N3CCS(=O)(=O)CC3)cc2)CC1` [Example 150, (1R,2R)-2-(1-(5-chloropyridin-2-yl)-4-(4-(1,1-dioxidothiomorpholino)phen-yl)-1H-pyrazol-3-yl)-N-(1-cyanocyclopropyl)-4,4-difluorocyclohexanecarbox-amide], the IC50 turned out to be 1.43 nM.

Take `N#CC1(NC(=O)[C@@H]2CCC(F)(F)C[C@H]2c2nn(-c3ccc(F)cn3)cc2-c2ccc(N3CCS(=O)(=O)CC3)cc2)CC1` [Example 151, (1R,2R)-N-(1-cyanocyclopropyl)-2-(4-(4-(1,1-dioxidothiomorpholino)phen-yl)-1-(5-fluoropyridin-2-yl)-1H-pyrazol-3-yl)-4,4-difluorocyclohexanecarbox-amide]: the IC50 turned out to be 2.44 nM.

As to `N#CC1(NC(=O)[C@@H]2CCCC[C@H]2c2nn(-c3ncccn3)cc2-c2ccc(N3CCS(=O)(=O)CC3)cc2)CC1` [Example 160, (1R,2R)-N-(1-cyanocyclopropyl)-2-(4-(4-(1,1-dioxidothiomorpholino)phen-yl)-1-(pyrimidin-2-yl)-1H-pyrazol-3-yl)cyclohexanecarboxamide], the IC50 was 34.7 nM.

These data come from US9656990B2, “Cathepsin cysteine protease inhibitors” (Merck Sharp & Dohme Corp., priority 2014, dated 2017).
